The values that follow come from ChEMBL document CHEMBL2384919, “Identification of New Nonsteroidal RORα Ligands; Related Structure-Activity Relationships and Docking Studies” (ACS Med Chem Lett, 2013).

In test [1] the target is T1, Nuclear receptor ROR-alpha (Homo sapiens) (UniProt P35398).
T1 sequence (whole entry): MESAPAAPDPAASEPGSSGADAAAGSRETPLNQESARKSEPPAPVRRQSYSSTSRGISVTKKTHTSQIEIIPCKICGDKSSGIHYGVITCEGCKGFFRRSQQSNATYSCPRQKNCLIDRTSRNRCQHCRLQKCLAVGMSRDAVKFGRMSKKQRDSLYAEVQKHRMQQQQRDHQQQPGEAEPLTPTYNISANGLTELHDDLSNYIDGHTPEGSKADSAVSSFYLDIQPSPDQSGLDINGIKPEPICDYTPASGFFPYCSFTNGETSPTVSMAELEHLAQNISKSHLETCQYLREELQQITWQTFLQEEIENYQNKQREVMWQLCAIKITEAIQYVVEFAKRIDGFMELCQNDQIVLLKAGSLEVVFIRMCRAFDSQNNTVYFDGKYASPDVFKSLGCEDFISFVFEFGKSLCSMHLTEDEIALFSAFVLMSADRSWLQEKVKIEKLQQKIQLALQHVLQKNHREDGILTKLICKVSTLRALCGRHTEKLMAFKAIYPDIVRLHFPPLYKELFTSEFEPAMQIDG
The experiment in a line: Partial agonist activity at GST-fussed RORalpha (unknown origin) assessed as recruitment of TIF2-BAP protein after overnight incubation by pull down assay relative to 7DC.

Test [2] concerns the target T1, Nuclear receptor ROR-alpha (Homo sapiens). Nature of the test: Partial agonist activity at GST-fussed RORalpha (unknown origin) assessed as recruitment of TIF2 mutant-BAP protein after overnight incubation by pull down assay.
Test [3] deals with T2, Nuclear receptor ROR-alpha (Homo sapiens, UniProt P35398).
T2 sequence (P35398 whole entry): T1 sequence (whole entry)
The experiment in a line: Partial agonist activity at GST-fussed RORalpha (unknown origin) assessed as recruitment of TIF2-BAP protein after overnight incubation by pull down assay.

Test [4] has as its target T1, Nuclear receptor ROR-alpha (Homo sapiens). The experiment in a line: Partial agonist activity at GST-fussed RORalpha (unknown origin) assessed as recruitment of TIF2-BAP protein at 30 uM after overnight incubation by pull down assay relative to 7DC.

Molecules are shown by their SMILES. The source made the active and inactive calls. The calls are words filed in the database; no cut-off is given here. A value given as a limit tells only on which side of the number the result lay.

One may read the Emax as the greatest response seen or fitted, relative to the assay's reference. For orientation: EC50 means the concentration giving half of the maximal effect. With `CCOC(=O)C1=C(C)NC(=O)NC1c1ccc(OCc2ccccc2)cc1` (racemic), in test [1], the Emax came to 25%. Further, in test [2], the result was inactive. The EC50 in test [3] was determined as 4.3 µM.

With `COc1ccc(COC(=O)C2=C(C)NC(=O)NC2c2ccc(OCc3ccccc3)c(OC)c2)cc1` (racemic), the Emax in test [1] turned out to be 19%. In addition, the outcome in test [2] was inactive. The EC50 in test [3] was found to be 10.9 µM.

Regarding `COc1cccc(COC(=O)C2=C(C)NC(=O)NC2c2ccc(OCc3ccccc3)c(OC)c2)c1` (racemic), the Emax in test [1] amounted to 55%. Also, the outcome in test [2] was inactive. In addition, the EC50 in test [3] was 26.2 µM.

As for `COc1ccc(COC(=O)C2=C(C)NC(=O)NC2c2ccc(OCc3ccccc3)c(OC)c2)cc1OC` (racemic), in test [1], the Emax was found to be 43%. The result in test [2] was inactive. Besides, the concentration giving a half-maximal response (EC50) in test [3] turned out to be 26.3 µM.

Consider `COc1cc(C2NC(=O)NC(C)=C2C(=O)OCc2ccc3c(c2)OCO3)ccc1OCc1ccccc1` (racemic), for which the Emax in test [1] worked out at 70%. The outcome in test [2] was inactive. In addition, in test [3], the concentration giving a half-maximal response (EC50) was determined as 12.5 µM.

Regarding `COc1cc(C2NC(=O)NC(C)=C2C(=O)OCCSC)ccc1OCc1ccccc1` (racemic), the Emax in test [1] was found to be 27%. Also, the result in test [2] was inactive. For the same compound, the EC50 in test [3] is over 30 µM.

With `COC(=O)C1=C(C)NC(=O)NC1c1ccc(OCc2ccccc2)c(OC)c1` (racemic), in test [1], the Emax came out at 33%. Also, in test [2], the outcome was inactive. The EC50 in test [3] came out at 13.1 µM.

As for `C=CCOC(=O)C1=C(C)NC(=O)NC1c1ccc(OCc2ccccc2)c(OC)c1` (racemic), in test [1], the Emax stood at 76%. Besides, in test [2], the outcome was inactive. Also, the EC50 in test [3] turned out to be 22.9 µM.

As for `CCCCOC(=O)C1=C(C)NC(=O)NC1c1ccc(OCc2ccccc2)c(OC)c1` (racemic), the Emax in test [1] worked out at 58%. The outcome in test [2] was inactive. Moreover, the EC50 in test [3] was determined as 14 µM.

For the compound `COc1cc(C2NC(=O)NC(C)=C2C(=O)OCC(F)(F)F)ccc1OCc1ccccc1` (racemic), the Emax in test [1] is 80%. In test [2], the outcome was inactive. Moreover, the EC50 in test [3] is over 30 µM.

As for `CC1=C(C(=O)OCC(F)(F)F)C(c2ccc(OCc3ccccc3)cc2)NC(=O)N1` (racemic), the Emax in test [1] worked out at 12%. The result in test [2] was inactive. Further, the EC50 in test [3] was over 30 µM.

Take `CC1=C(C(=O)OCCOc2ccccc2)C(c2ccc(OCc3ccccc3)cc2)NC(=O)N1` (racemic): the Emax in test [1] was 39%. The EC50 in test [3] was 8.1 µM.

`CCOC(=O)C1=C(C)NC(=O)NC1c1cc(OC)c(OCc2ccccc2Cl)cc1Cl` (racemic): the Emax in test [1] worked out at 55%. Moreover, the EC50 in test [3] is 5.5 µM.

Take `CCOC(=O)C1=C(C)NC(=O)NC1c1ccc(OCc2ccccc2)c(OC)c1` (racemic): the Emax in test [1] was found to be 56%. Besides, the EC50 in test [3] was found to be 8.9 µM.

As for `CCOC(=O)C1=C(C)NC(=O)NC1c1ccc(OCCc2ccccc2)c(OC)c1` (racemic), the Emax in test [1] was determined as 36%. Further, the outcome in test [2] was inactive. Besides, the EC50 in test [3] stood at 20.3 µM.

For the compound `COc1cc(C2NC(=O)NC(C)=C2C(C)=O)ccc1OCc1ccccc1Cl` (racemic), in test [1], the Emax worked out at 48%. For the same compound, the result in test [2] was inactive. In addition, the EC50 in test [3] was determined as 28.2 µM.

With `CCOC(=O)C1=C(C)N(C)C(=O)NC1c1ccc(OCc2ccccc2)c(OC)c1` (racemic), the Emax in test [1] was found to be 29%. The result in test [2] was inactive. Besides, in test [3], the EC50 is over 19 µM.

As to `CCOC(=O)C1=C(C)NC(=O)N(C)C1c1ccc(OCc2ccccc2)c(OC)c1` (racemic), the Emax in test [1] is 19%. Besides, the result in test [2] was inactive. The EC50 in test [3] was over 30 µM.

Regarding `CCOC(=O)C1=C(CC)NC(=O)NC1c1ccc(OCc2ccccc2)c(OC)c1` (racemic), the Emax in test [1] was over 45%. The result in test [2] was inactive. The EC50 in test [3] is over 30 µM.

For the compound `COc1cc(C2NC(=O)NC(C)=C2C(=O)OCc2ccccc2)ccc1OCc1ccccc1` (racemic), the Emax in test [1] is 44%. The result in test [2] was inactive. Besides, the EC50 in test [3] was over 30 µM.

Turning to `CC1=C(C(=O)Nc2ccccc2)C(c2ccc(OCc3ccccc3)cc2)NC(=O)N1` (racemic), the outcome in test [4] and in test [2] was inactive.

On to `CC1=C(C(=O)OCC(C)C)C(c2ccc(OCc3ccccc3)cc2)NC(=O)N1` (racemic), for which the outcome in test [4] and in test [2] was inactive.

Regarding `CCC(C)NC(=O)C1=C(C)NC(=O)NC1c1ccc(OCc2ccccc2)cc1` (racemic), the outcome in test [4] and in test [2] was inactive.

Take `CCCOc1ccc(C2NC(=O)NC(C)=C2C(=O)OCC)cc1OC` (racemic): the outcome in test [4] and in test [2] was inactive.

Turning to `CCOC(=O)C1=C(C)NC(=O)NC1c1cc(OC)c(O)cc1Cl` (racemic), the outcome in test [4] and in test [2] was inactive.

On to `CCOC(=O)C1=C(C)NC(=O)NC1c1cc(OC)c(OC)cc1Cl` (racemic), for which the result in test [4] and in test [2] was inactive.

`CCOC(=O)C1=C(C)NC(=O)NC1c1ccc(OCCCc2ccccc2)c(OC)c1` (racemic): the result in test [4] and in test [2] was inactive.

Take `COc1cc(C2NC(=O)NC(C)=C2C(=O)NCc2ccccc2)ccc1OCc1ccccc1` (racemic): the result in test [4] and in test [2] was inactive.

Take `COc1cc(C2NC(=O)NC(C)=C2C(=O)O)ccc1OCc1ccccc1` (racemic): the outcome in test [4] and in test [2] was inactive.

Consider `COc1cc(C2NC(=O)NC(C)=C2C(=O)OCC2CCCCC2)ccc1OCc1ccccc1` (racemic), for which the result in test [4] and in test [2] was inactive.

As for `COc1cc(C2NC(=O)NC(C)=C2C(=O)OCC2CCCO2)ccc1OCc1ccccc1` (racemic), the result in test [4] and in test [2] was inactive.

Turning to `COc1cc(C2NC(=O)NC(C)=C2C(=O)OCCOC(C)C)ccc1OCc1ccccc1` (racemic), the outcome in test [4] and in test [2] was inactive.

On to `COc1cc(C2NC(=O)NC(C)=C2C(=O)OCCc2ccccc2)ccc1OCc1ccccc1` (racemic), for which the result in test [4] and in test [2] was inactive.

In the case of `COc1cc(C2NC(=O)NC(C)=C2C(C)=O)ccc1OCc1ccccc1` (racemic), the result in test [4] and in test [2] was inactive.

With `COc1cc(C2NC(=O)NC(C)=C2C(N)=O)ccc1OCc1ccccc1` (racemic), the outcome in test [4] and in test [2] was inactive.

As for `CCOc1cc(C2NC(=O)NC(C)=C2C(C)=O)ccc1OCc1ccccc1Cl` (single isomer, unassigned; enantiomer 1) [listing 1 of 2 here], the EC50 in test [3] was determined as 10.9 µM.

`CCOc1cc(C2NC(=O)NC(C)=C2C(C)=O)ccc1OCc1ccccc1Cl` (single isomer, unassigned; enantiomer 1) [listing 2 of 2 here]: the Emax in test [1] was determined as 85%. The outcome in test [2] was inactive.

For `CCOc1cc(C2NC(=O)NC(C)=C2C(C)=O)ccc1OCc1ccccc1Cl` (single isomer, unassigned; enantiomer 2) [listing 1 of 2 here], the EC50 in test [3] is over 30 µM.

As to `CCOc1cc(C2NC(=O)NC(C)=C2C(C)=O)ccc1OCc1ccccc1Cl` (single isomer, unassigned; enantiomer 2) [listing 2 of 2 here], the Emax in test [1] is over 41%. For the same compound, the outcome in test [2] was inactive.

As to `CCOc1cc(C2NC(=O)NC(C)=C2C(C)=O)ccc1OCc1ccccc1Cl` (stereo in doubt; 1) [listing 1 of 2 here], the EC50 in test [3] is 12.7 µM.

Consider `CCOc1cc(C2NC(=O)NC(C)=C2C(C)=O)ccc1OCc1ccccc1Cl` (stereo in doubt; 1) [listing 2 of 2 here], for which, in test [1], the Emax was 88%. For the same compound, the result in test [2] was inactive.
